Measurements as given in patent EP4371976B1, “IONIZABLE LIPIDS AND LIPID NANOPARTICLES CONTAINING THEREOF” (Certest Biotec, S.L., priority 2022, dated 2024).

Assays:
[1] = Apparent pKa of LNPs comprising the ionizable lipid (Table 6); details: standard formulation 50:10:38.5:1.5
[2] = RNA encapsulation efficiency of LNPs by Quant-IT Ribogreen; type: physicochemical; details: for Encaps. efficiency (%): LNPs with luciferase mRNA, ionizable lipid:non-cationic lipid:sterol:PEG-modified lipid 50:10:38.5:1.5; for Encaps. efficiency: Table 8, LNP 50:10:38.5:1.5, luciferase mRNA
How it was run: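 Ribogreen dye assay per manufacturer quantified encapsulated mRNA. Particles were made by adding mRNA in water to the ethanol phase, then 1:1 Tris dilution and overnight dialysis into Tris/15% sucrose; final mRNA set to 100 µg/ml.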

Female BALB/c mice = assay: Firefly luciferase expression (total flux, IVIS imaging) in mice after injection of mRNA-loaded LNPs; type: in vivo; details: for Total Flux: LNP 50:10:38.5:1.5
Experimental: For in vivo administration, mRNA comprising in the 5' to 3' direction a sequence encoding for luciferase of SEQ ID NO:1, was encapsulated into LNPs following the procedure described in Hassett, K. J. et al., "Optimization of Lipid Nanoparticles for Intramuscular Administration of mRNA Vaccines", 2019, Mol. Ther. Nucleic Acid, vol. 15, pp. 1-11. Briefly, the purified mRNAs were first diluted in sodium citrate buffer at pH=4 at a final concentration of 266 µg/ml. Separately, a mixture of the ionizable lipid of the invention:DSPC (Merk 850365P):cholesterol (Sigma C3045):DMG-PEG2000 (Cayman 33945-1) were dissolved into ethanol at the respective molar percentages of 50:10:38.5:1.5, and with a lipid-nitrogen-to-phosphate ratio (N:P) ratio of 5,5:1.
The mRNA aqueous solution was then carefully added to the ethanol solution, and the resulted solution was homogenized by pipetting up and down for 4-5 times. The resulting LNPs were immediately diluted 1:1 with Tris buffer and dialyzed overnight against Tris buffer containing 15% sucrose. The resulting LNP solution was then collected, and the encapsulated mRNA was assessed by Quant-IT® Ribogreen (Invitrogen R11490) following the manufacturer's instructions.
Female BALB/c mice (Charles River Laboratories), 8-10-week-old, weighting 18-23 g, were acclimatized to new conditions upon arrival to experimental facilities for 3-7 days. Housing conditions were room temperature 20-24 °C, humidity 50-70 %, and light intensity 60 lux with a light-dark cycle of 12 hours.
For Firefly Luciferase activity measurement in mice, LNPs produced as indicated above (ionizable lipid:helper lipid: sterol:PEG-modified lipid → 50:10:38.5:1.5) and containing 5 µg of the indicated mRNA in 50 µl final volume, were injected intramuscularly.
From 4 to 72 hours after RNA-LPN inoculation mice were anaesthetized by inhalation with 4% of isoflurane using a vaporizer. The maintenance of the anaesthesia was performed at 1.5% of isoflurane. Then, D-luciferin (Quimigen, 12507) was injected intraperitoneally at 150 mg/kg, normally ~200 µL of the stock at 15 mg/mL in PBS for a 20 g mouse. Luciferase images were acquired 10 minutes after luciferin inoculation using the IVIS Lumina XRMS Imaging System following manufacturer's instructions.

[3] = Size distribution, polydispersity and Z-potential of LNPs by dynamic light scattering (Malvern Zetasizer); type: physicochemical
Experimental: The LNP solution was then adjusted to a final concentration of mRNA of 100 µg/ml. Size distribution, polydispersity and Z-potential were measured by dynamic light scattering (DLS) using Malvern Zetasizer Advance Lab Blue Label. RNA encapsulation was assessed by Quant-IT® Ribogreen following the manufacturer's instructions.

HEK293T cells = details: reported by Molla et al., cited from earlier work
[4] = percentage of RNA entrapped in the LNP
[5] = Table 8, mice, intramuscular, 5 µg luciferase mRNA in 50 µl
[6] = LNPs, standard formulation 50:10:38.5:1.5, DLS
[7] = Table 10, VC-LC-0431:DOPE:Cholesterol:DMG-PEG2000 50:10:38.5:1.5

## CCCCCCCCC(CCCCCCCC)OC(=O)C(CSCCC(=O)OCCCCCCCC(C)C)CC(=O)NCCCn1ccnc1 (centres unmarked) [VC-LC-0296]
[1]
  Apparent pKa: 5.62
[2]; [4]
  Encaps. efficiency (%): 48.51%
[2]
  Encaps. efficiency: 48.5%
Female BALB/c mice; [5]
  Total Flux: 4.7E+07 p·s^-1
[3]; [6]
  P.D.I.: 0.13
  Particle size/ Ø (nm): 175.8 nm
  Z Potential (± D.E.) [mV]: -7.19 mV

## CCCCCCCCC(CCCCCCCC)OC(=O)C(CSCCC(=O)OCC(CC)CCCC)CC(=O)NCCCn1ccnc1 (centres unmarked) [VC-LC-0297]
[1]
  Apparent pKa: 5.80
[2]; [4]
  Encaps. efficiency (%): 46.94%
[2]
  Encaps. efficiency: 46.9%
Female BALB/c mice; [5]
  Total Flux: 2.3E+07 p·s^-1
[3]; [6]
  P.D.I.: 0.18
  Particle size/ Ø (nm): 193.3 nm
  Z Potential (± D.E.) [mV]: -11.77 mV

## CCCCCCCCCCCCOC(=O)CCSCC(CC(=O)NCCCn1ccnc1)C(=O)OC(CCCCCCCC)CCCCCCCC (centres unmarked) [VC-LC-0298]
[1]
  Apparent pKa: 6.06
[2]; [4]
  Encaps. efficiency (%): 59.92%
[2]
  Encaps. efficiency: 59.92%
Female BALB/c mice; [5]
  Total Flux: 7.6E+07 p·s^-1
[3]; [6]
  P.D.I.: 0.16
  Particle size/ Ø (nm): 190.5 nm
  Z Potential (± D.E.) [mV]: -13.51 mV

## CCCCCCCCOC(=O)CCSCC(CC(=O)NCCCn1ccnc1)C(=O)OC(CCCCCCCC)CCCCCCCC (centres unmarked) [VC-LC-0307]
[1]
  Apparent pKa: 6.11
[2]; [4]
  Encaps. efficiency (%): 43.89%
[2]
  Encaps. efficiency: 43.9%
Female BALB/c mice; [5]
  Total Flux: 1.47E+08 p·s^-1
[3]; [6]
  P.D.I.: 0.14
  Particle size/ Ø (nm): 178 nm
  Z Potential (± D.E.) [mV]: -15.15 mV

## CCCCCCCCC(CCCCCC)COC(=O)CCSCCC(NC(=O)C(CCCCCC)CCCCCCCC)C(=O)NC1CCN(C)CC1 (centres unmarked) [VC-LC-0431]
[1]
  Apparent pKa: 5.77
[2]; [4]
  Encaps. efficiency (%): 60.4%
[2]
  Encaps. efficiency: 60.4%
[2]; [7]
  Encapsulation efficiency (%): 60.4%
Female BALB/c mice; [5]
  Total Flux: 9.92E+07 p·s^-1
Female BALB/c mice; Table 10, mice, VC-LC-0431:DOPE:Cholesterol:DMG-PEG2000 50:10:38.5:1.5
  Total flux (p·s^-1): 9.92E+07 p·s^-1
[3]; [6]
  P.D.I.: 0.11
  Particle size/ Ø (nm): 196.6 nm
  Z Potential (± D.E.) [mV]: -0.28 mV
[3]; [7]
  P.D.I.: 0.114
  Particle size/ Ø (nm): 196,6 nm
  Z Potential (± D.E.) [mV]: -0.281 mV

## CCCCCCCCCCCCOC(=O)CCSCCC(C(=O)NC1CCN(C)CC1)C(=O)OC(CCCCCCCC)CCCCCCCC (centres unmarked) [VC-LC-0440]
[1]
  Apparent pKa: 6.75
[2]; [4]
  Encaps. efficiency (%): 76.52%
[2]
  Encaps. efficiency: 76.5%
Female BALB/c mice; [5]
  Total Flux: 2.42E+07 p·s^-1
[3]; [6]
  P.D.I.: 0.10
  Particle size/ Ø (nm): 167.4 nm
  Z Potential (± D.E.) [mV]: -3.61 mV

## CCCCCCCCC(CCCCCC)COC(=O)CCSCCC(NC(=O)C(CCCCCC)CCCCCCCC)C(=O)NCC1CCN(C)CC1 (centres unmarked) [VC-LC-0491]
[1]
  Apparent pKa: 7.07
[2]; [4]
  Encaps. efficiency (%): 72.06%
[2]
  Encaps. efficiency: 72.1%
Female BALB/c mice; [5]
  Total Flux: 2.37E+07 p·s^-1
[3]; [6]
  P.D.I.: 0.17
  Particle size/ Ø (nm): 160.8 nm
  Z Potential (± D.E.) [mV]: -3.40 mV

## CCCCCCCCCCC(CCCCCCCC)C(=O)NC(CCSCCC(=O)OCC(CCCCCC)CCCCCCCC)C(=O)NCC1CCN(C)CC1 (centres unmarked) [VC-LC-0508]
[1]
  Apparent pKa: 7.48
[2]; [4]
  Encaps. efficiency (%): 91.49%
[2]
  Encaps. efficiency: 91.49%
Female BALB/c mice; [5]
  Total Flux: 1.7E+08 p·s^-1
[3]; [6]
  P.D.I.: 0.13
  Particle size/ Ø (nm): 152.6 nm
  Z Potential (± D.E.) [mV]: -2.43 mV

## CCCCCCCCCCC(CCCCCCCC)C(=O)NC(CCSCCC(=O)OCCCCCC(C)C)C(=O)NCC1CCN(C)CC1 (centres unmarked) [VC-LC-0515]
[1]
  Apparent pKa: 7.26
[2]; [4]
  Encaps. efficiency (%): 98.61%
[2]
  Encaps. efficiency: 98.61%
Female BALB/c mice; [5]
  Total Flux: 3.0E+07 p·s^-1
[3]; [6]
  P.D.I.: 0.12
  Particle size/ Ø (nm): 141.7 nm
  Z Potential (± D.E.) [mV]: 1.90 mV

## CCCCCCCC/C=C\CCCCCCCCOC(=O)CCSCC(CC(=O)NC1CCN(C)CC1)C(=O)OCC(CCCCCC)CCCCCCCC (centres unmarked) [VC-LC-0539]
[1]
  Apparent pKa: 6.90
[2]; [4]
  Encaps. efficiency (%): 85.33%
[2]
  Encaps. efficiency: 85.3%
Female BALB/c mice; [5]
  Total Flux: 3.6E+07 p·s^-1
[3]; [6]
  P.D.I.: 0.13
  Particle size/ Ø (nm): 176.7 nm
  Z Potential (± D.E.) [mV]: -1.24 mV

## CCCCCCCCC(CCCCCCCC)OC(=O)C(CSCCC(=O)OCCCCCC(C)C)CC(=O)NCCCN1CCOCC1 (centres unmarked) [VC-LC-0548]
[2]; [4]
  Encaps. efficiency (%): 30.22%
[2]
  Encaps. efficiency: 30.22%
Female BALB/c mice; [5]
  Total Flux: 1.2E+08 p·s^-1
[3]; [6]
  P.D.I.: 0.17
  Particle size/ Ø (nm): 145.5 nm
  Z Potential (± D.E.) [mV]: -8.82 mV

## CCCCCCCCCCCCCCCCCCCCCCOC(=O)CCSCC(CC(=O)NCCCN1CCOCC1)C(=O)OC(CCCCCCCC)CCCCCCCC (centres unmarked) [VC-LC-0549]
[2]; [4]
  Encaps. efficiency (%): 36.38%
[2]
  Encaps. efficiency: 36.38%
Female BALB/c mice; [5]
  Total Flux: 2.5E+07 p·s^-1
[3]; [6]
  P.D.I.: 0.27
  Particle size/ Ø (nm): 194.9 nm
  Z Potential (± D.E.) [mV]: -16.95 mV

## CCCCCCCCC(CCCCCCCC)OC(=O)C(CSCCC(=O)OCCCCCC)CC(=O)NCCCN1CCOCC1 (centres unmarked) [VC-LC-0550]
[1]
  Apparent pKa: 6.53
[2]; [4]
  Encaps. efficiency (%): 26.96%
[2]; Table 6, percentage of RNA entrapped in the LNP, LNP 50:10:38.5:1.5
  encapsulation efficiency: 26.96%
Female BALB/c mice; Table 6, in vivo after injection
  Total Flux: 3,4·10^7 p·s^-1
[3]; [6]
  P.D.I.: 0.16
  Particle size/ Ø (nm): 173.7 nm
  Z Potential (± D.E.) [mV]: -14.52 mV

## CCCCCCCCOC(=O)CCSCC(CC(=O)NCCCN1CCOCC1)C(=O)OC(CCCCCCCC)CCCCCCCC (centres unmarked) [VC-LC-0551]
[1]
  Apparent pKa: 6.51
[2]; [4]
  Encaps. efficiency (%): 29.06%
[2]
  Encaps. efficiency: 29.06%
Female BALB/c mice; [5]
  Total Flux: 1.1E+08 p·s^-1
[3]; [6]
  P.D.I.: 0.15
  Particle size/ Ø (nm): 155.3 nm
  Z Potential (± D.E.) [mV]: -11.66 mV

## CCCCCCCCCCCCC(CCCCCCCCCC)COC(=O)CCSCC(CC(=O)NCCCN1CCOCC1)C(=O)OC(CCCCCCCC)CCCCCCCC (centres unmarked) [VC-LC-0553]
[2]; [4]
  Encaps. efficiency (%): 36.11%
Female BALB/c mice; Figure 1 legend, LNPs containing RNA
  protein expression in mice (transfection results): good transfection results
[3]; [6]
  P.D.I.: 0.22
  Particle size/ Ø (nm): 196.2 nm
  Z Potential (± D.E.) [mV]: -8.66 mV

## CCCCCCCCCCC(CCCCCCCC)C(=O)NC(CCSCCC(=O)OCC(CCCCCC)CCCCCCCC)C(=O)NC1CCN(C)CC1 (centres unmarked) [VC-LC-0557]
[2]; [4]
  Encaps. efficiency (%): 77.19%
[2]
  Encaps. efficiency: 77.2%
Female BALB/c mice; [5]
  Total Flux: 4.3E+07 p·s^-1
[3]; [6]
  P.D.I.: 0.11
  Particle size/ Ø (nm): 142.5 nm
  Z Potential (± D.E.) [mV]: -6.12 mV

## CCCCCCCCCCC(CCCCCCCC)C(=O)NC(CCSCCC(=O)OCCCCCCCC(C)C)C(=O)NC1CCN(C)CC1 (centres unmarked) [VC-LC-0558]
[1]
  Apparent pKa: 5.95
[2]; [4]
  Encaps. efficiency (%): 50.58%
[2]
  Encaps. efficiency: 50.6%
Female BALB/c mice; [5]
  Total Flux: 7.9E07 p·s^-1
[3]; [6]
  P.D.I.: 0.11
  Particle size/ Ø (nm): 155.2 nm
  Z Potential (± D.E.) [mV]: -6.62 mV

## CCCCCCCC/C=C\CCCCCCCCC(=O)CC(CCSSCCCCCCCCCCCC)C(=O)NCCN1CCN(C)CC1 (centres unmarked) [VC-LC-0588]
Female BALB/c mice; Figure 2, intramuscular injection, LNP 50:10:38.5:1.5 encapsulating luciferase mRNA
  transfection (luminescence) in vivo: no transfection
HEK293T cells; HEK293T cells, without addition of helper lipids
  transfection efficiency: about 95%
HEK293T cells; liposomes, in vitro
  toxicity: low toxicity
